Source: patent publication US20120077804A1, “Small Molecule Inhibitors of RNA Silencing” (The Regents of the University of California, priority 2007, published 2012)

Experiments:
[1] = system: RNAi induced by synthetic double-stranded RNA (dsRNA); experiment: Northern blot of Cyclin A mRNA in S2 cells, RNAi induced by synthetic dsRNA (dsCycA); assay type: cell-based, Drosophila; settings: for Degradation of cyclin A mRNA targeted by dsCycA: dsCycA plus 30 μM compound
Excerpt: FIG. 2 illustrates the northern blot detection of Cyclin A mRNA in S2 cells.
Degradation of cyclin A mRNA occurred in S2 cells transfected with a dsRNA specific to cyclin A (dsCycA) (see, FIG. 2, lanes 1-2), but not in cells treated with a GFP-specific dsRNA (dsGFP) (see, FIG. 2, lane 8). […] Similar inhibition of cyclin A RNAi was also observed in cells co-transfected with a dsRNA targeting mRNA of Drosophila Ago2 (see, FIG. 2, lane 9), which is essential for RNAi in Drosophila.

[2] = system: RNAi-mediated innate immunity against virus infection in cultured Drosophila cells; experiment: Cell-based high throughput screen, GFP expression in R1gfp cells after induction of FHV replication
Excerpt: A cell-based high throughput screening protocol for the identification of chemical inhibitors of the RNAi-mediated innate immunity against virus infection in cultured Drosophila cells has been established. The system is based on Flock house virus (FHV), an animal Nodavirus that contains a bipartite RNA genome. FHV RNA2 encodes the single virion structural protein, whereas FHV RNA1 encodes the viral RNA-dependent RNA polymerase (RdRP) and B2, a viral suppressor of RNAi (VSR) expressed after RNA1 replication from its own mRNA, RNA3. In the absence of RNA2, RNA1 replicates autonomously, accumulates to high levels, and produces abundant RNA3 in Drosophila cells. […] Similarly, green fluorescence is not detectable in wild type Drosophila cells transfected with pR1gfp, which encodes a recombinant RNA1 in which the viral B2 gene is replaced with green fluorescent protein (GFP) gene. A stable Drosophila Schneider 2 cell line has been established, and carries pR1gfp, called line R1gfp. R1gfp cells were seeded in 96-well plates and incubated overnight with chemicals from ChemBridge Diverset Library before FHV replication was induced. Expression of GFP was screened in R1gfp cells two days following the induction of FHV replication (see, Li et al., Proc Natl Acad Sci USA 2004, 101(5), 1350-5).

SMILES	Inhibition of RNAi induced by synthetic double-stranded RNA (dsRNA) [1]	Degradation of cyclin A mRNA targeted by dsCycA [1]	Inhibition of RNAi-mediated viral immunity (detection of green fluorescence) [2]
COc1ccc(CN2CCN(S(=O)(=O)c3ccc(C)cc3)CC2)cc1OCc1ccccc1 [Rin2, 1-[3-(benzyloxy)-4-methoxybenzyl]-4-[(4-methylphenyl)sulfony]piperazine]	active inhibitors	partially inhibited	inhibit the RNAi-mediated viral immunity
CCN(CC)c1ccc(/C=C2/C(=O)NN(c3ccc(C)c(Cl)c3)C2=O)c(O)c1 [Rin3, 1-(3-chloro-4-methylphenyl)-4-[4-(diethylamino)-2-hydroxybenzylidene]-3,5-pyrazolidinedione]	active inhibitors	partially inhibited	inhibit the RNAi-mediated viral immunity
